Where “and” joins values, the source holds several entries; their conditions need not be identical. Equal values may be shown once.
Target: T1, human FSH receptor (Homo sapiens, UniProt P23945)
T1 construct: expressed in transfected cells; host or cells: CHO cells, cotransfected with a CRE/promotor firefly luciferase reporter
T1 sequence (P23945 18-695): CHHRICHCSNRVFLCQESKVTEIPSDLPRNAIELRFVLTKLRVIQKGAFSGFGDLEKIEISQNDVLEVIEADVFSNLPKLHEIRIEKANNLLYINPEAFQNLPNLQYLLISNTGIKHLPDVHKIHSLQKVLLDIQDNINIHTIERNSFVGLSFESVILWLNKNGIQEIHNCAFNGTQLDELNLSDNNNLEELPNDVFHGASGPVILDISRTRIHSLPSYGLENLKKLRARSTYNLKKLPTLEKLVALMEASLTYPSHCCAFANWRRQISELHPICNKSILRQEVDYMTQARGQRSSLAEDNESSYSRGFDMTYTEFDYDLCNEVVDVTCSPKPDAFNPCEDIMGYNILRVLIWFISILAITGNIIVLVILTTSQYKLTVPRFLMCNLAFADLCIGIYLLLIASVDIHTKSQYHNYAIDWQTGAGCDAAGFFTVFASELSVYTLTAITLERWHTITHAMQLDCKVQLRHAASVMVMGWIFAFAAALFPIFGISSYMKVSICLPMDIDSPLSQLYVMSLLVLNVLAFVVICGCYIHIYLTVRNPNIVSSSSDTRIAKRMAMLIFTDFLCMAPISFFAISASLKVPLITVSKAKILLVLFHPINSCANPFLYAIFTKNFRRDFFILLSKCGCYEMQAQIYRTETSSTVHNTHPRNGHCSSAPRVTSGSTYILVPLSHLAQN
Assay: Antagonistic activity at the human FSH receptor expressed in CHO cells (CRE-luciferase reporter)
Type: cell-based
Details: CHO cells stably transfected with human FSH receptor and CRE/firefly luciferase reporter; 4 hours incubation; read-out: pIC50 (negative logarithm of the IC50 value) (converted)
Protocol: The FSHR antagonists of the invention have pIC50 values higher than 6 in said assay. The preferred compounds of the invention have pIC50 values higher than 8.
Antagonistic activity of the compounds at the human FSH receptor was determined in Chinese Hamster Ovary (CHO) cells stably transfected with the human FSH receptor and cotransfected with a cAMP responsive element (CRE)/promotor directing the expression of a firefly luciferase reporter gene. […] The cells (7,500 cells/well of a 384 well plate) were incubated in Dulbecco′ minimal essential F12 modified medium (Invitrogen), supplemented with 1 μg/ml bovine insulin, 5 μg/ml human apo-transferrin, 100 U/ml penicillin G and 100 μg/ml streptomycin with the test compounds (concentration between 0.316 nM and 10.0 μM) in duplicate together with […] (which, at this concentration in the absence of test compound, induces 80% of the maximal luciferase stimulation) in a humidified atmosphere (95%) at 5-7% CO2 and 37° C. The final concentration of DMSO was 1%. After 4 hours of incubation, plates were allowed to adjust to room temperature for 1 hour. Then, SteadyLite (Perkin Elmer) solution was added to the wells and cells were allowed to lyse for at least 1 hour at room temperature. Subsequently, luciferase activity was measured in a luminescence counter. The signal is expressed as counts per second (cps). The IC50 (concentration of test compound causing half-maximal (50%) inhibition of the maximally attainable inhibition of the luciferase stimulation by the compound) and efficacy of the compounds were determined using the software program MathIQ (version 2.3, ID Business Solutions Limited).

Compound | IC50
COc1cc(OCC2CC2)cc(C(=O)NC2CC23CCN(c2ccnc(-c4cccc(-n5cccn5)c4)n2)CC3)c1 (stereo not shown) [Example 35, N-(6-(2-(3-(1H-pyrazol-1-yl)phenyl)pyrimidin-4-yl)-6-azaspiro[2.5]octan-1-yl)-3-(cyclopropylmethoxy)-5-methoxybenzamide] | 10 to 100 nM
COc1cc(OCC2CC2)cc(C(=O)NCC2CCN(c3ncnc(-c4cccc(-c5ncc[nH]5)c4)n3)CC2)c1 [Example 40, N-((1-(4-(3-(1H-imidazol-2-yl)phenyl)-1,3,5-triazin-2-yl)piperidin-4-yl)methyl)-3-(cyclopropylmethoxy)-5-methoxybenzamide 2,2,2-trifluoroacetate] | < 10 nM
Cc1cc(NC(=O)C2CCN(c3ccnc(-c4cccc(-n5cccn5)c4)n3)CC2)cc(OC(F)(F)F)c1 [Example 46, 1-(2-(3-(1H-pyrazol-1-yl)phenyl)pyrimidin-4-yl)-N-(3-methyl-5-(trifluoromethoxy)phenyl)piperidine-4-carboxamide] | 10 to 100 nM
COc1cc(NC(=O)C2CCN(c3ccnc(-c4cccc(-n5cccn5)c4)n3)CC2)cc(OC)c1 [Example 51, 1-(2-(3-(1H-pyrazol-1-yl)phenyl)pyrimidin-4-yl)-N-(3,5-dimethoxyphenyl) piperidine-4-carboxamide] | < 10 nM
COc1cc(NC(=O)C2CCN(c3ccnc(-c4cccc(-n5cccn5)c4)n3)CC2)cc(OCC2CCCCC2)c1 [Example 45, 1-(2-(3-(1H-pyrazol-1-yl)phenyl)pyrimidin-4-yl)-N-(3-(cyclohexylmethoxy)-5-methoxyphenyl)piperidine-4-carboxamide] | 10 to 100 nM
COc1cc(OCC2CC2)cc(C(=O)NC(C)C2CCN(c3ccnc(-c4cccc(C#N)c4)n3)CC2)c1 (stereo not shown) [Example 38, N-(1-(1-(2-(3-cyanophenyl)pyrimidin-4-yl)piperidin-4-yl)ethyl)-3-(cyclopropylmethoxy)-5-methoxybenzamide] | < 10 nM
COc1cc(NC(=O)C2CCN(c3ccnc(-c4cccc(-n5cccn5)c4)n3)CC2)cc(OC(C)C)c1 [Example 44, 1-(2-(3-(1H-pyrazol-1-yl)phenyl)pyrimidin-4-yl)-N-(3-isopropoxy-5-methoxyphenyl)piperidine-4-carboxamide] | 10 to 100 nM
COc1cc(OCc2ccc(F)cc2)cc(C(=O)NCC2CCN(c3ccnc(-c4cccc(-n5cccn5)c4)n3)CC2)c1 [Example 14, N-((1-(2-(3-(1H-pyrazol-1-yl)phenyl)pyrimidin-4-yl)piperidin-4-yl)methyl)-3-(4-fluorobenzoxy)-5-methoxybenzamide] | 10 to 100 nM
COc1cc(OCC2CC2)cc(C(=O)NC(C)C2CCN(c3ccnc(-c4cccc(-n5cccn5)c4)n3)CC2)c1 (stereo not shown) [Example 39, N-(1-(1-(2-(3-(1H-pyrazol-1-yl)phenyl)pyrimidin-4-yl)piperidin-4-yl)ethyl)-3-(cyclopropylmethoxy)-5-methoxybenzamide] | < 10 nM
COc1cc(OCc2ccccc2)cc(C(=O)NCC2CCN(c3ccnc(-c4cccc(-n5cccn5)c4)n3)CC2)c1 [Example 11, N-((1-(2-(3-(1H-pyrazol-1-yl)phenyl)pyrimidin-4-yl)piperidin-4-yl)methyl)-3-(benzoxy)-5-methoxybenzamide] | 10 to 100 nM

Other lines, results leading:

IC50 | Compound
10 to 100 nM | COc1cc(OCC2CC2)cc(C(=O)NCC2CCN(c3ncnc(-c4cccc(C(=O)NCCO)c4)n3)CC2)c1 [Example 32H, 3-(cyclopropylmethoxy)-N-((1-(4-(3-(2-hydroxyethylcarbamoyl)phenyl)-1,3,5-triazin-2-yl)piperidin-4-yl)methyl)-5-methoxybenzamide]
< 10 nM | COc1cc(OCC2CC2)cc(C(=O)NCC2CCN(c3ccnc(-c4cccc(-n5cccn5)c4)n3)CC2)c1 [Example 15A, N-((1-(2-(3-(1H-pyrazol-1-yl)phenyl)pyrimidin-4-yl)piperidin-4-yl)methyl)-3-(cyclopropylmethoxy)-5-methoxybenzamide]
10 to 100 nM | COc1cc(OCCCO)cc(C(=O)NCC2CCN(c3ccnc(-c4cccc(-n5cccn5)c4)n3)CC2)c1 [Example 15C, N-((1-(2-(3-(1H-pyrazol-1-yl)phenyl)pyrimidin-4-yl)piperidin-4-yl)methyl)-3-(3-hydroxypropoxy)-5-methoxybenzamide]
< 10 nM | COc1cc(OCc2cc(C)on2)cc(C(=O)NCC2CCN(c3ccnc(-c4cccc(-n5cccn5)c4)n3)CC2)c1 [Example 15B, N-((1-(2-(3-(1H-pyrazol-1-yl)phenyl)pyrimidin-4-yl)piperidin-4-yl)methyl)-3-methoxy-5-((5-methylisoxazol-3-yl)methoxy)benzamide]
10 to 100 nM | COc1cc(OCc2ccoc2)cc(C(=O)NCC2CCN(c3ncnc(-c4cccc(-n5cccn5)c4)n3)CC2)c1 [Example 17C]
10 to 100 nM | COc1cc(OCC2CC2)cc(C(=O)NCC2CCN(c3ccnc(-c4ccc(F)c(C#N)c4)n3)CC2)c1 [Example 33C, N-((1-(2-(3-cyano-4-fluorophenyl)pyrimidin-4-yl)piperidin-4-yl)methyl)-3-(cyclopropylmethoxy)-5-methoxybenzamide]
10 to 100 nM and < 10 nM | COc1cc(OCC2CC2)cc(C(=O)NCC2CCN(c3ccnc(-c4cccc(-n5cc(C)cn5)c4)n3)CC2)c1 [Example 33A, 3-(cyclopropylmethoxy)-5-methoxy-N-((1-(2-(3-(4-methyl-1H-pyrazol-1-yl)phenyl)pyrimidin-4-yl)piperidin-4-yl)methyl)benzamide]
10 to 100 nM | COc1cc(OCC2CCOCC2)cc(C(=O)NCC2CCN(c3ncnc(-c4cccc(-n5cccn5)c4)n3)CC2)c1 [Example 17B, N-((1-(4-(3-(1H-pyrazol-1-yl)phenyl)-1,3,5-triazin-2-yl)piperidin-4-yl)methyl)-3-methoxy-5-((tetrahydro-2H-pyran-4-yl)methoxy)benzamide]
10 to 100 nM | COc1cc(OCC2CC2)cc(C(=O)NCC2CCN(c3ncnc(-c4cccc(C(=O)NCC(F)F)c4)n3)CC2)c1 [Example 32G, 3-(cyclopropylmethoxy)-N-((1-(4-(3-(2,2-difluoroethylcarbamoyl)phenyl)-1,3,5-triazin-2-yl)piperidin-4-yl)methyl)-5-methoxybenzamide]
< 10 nM | COc1cc(OCC2CC2)cc(C(=O)NCC2CCN(c3ccnc(-c4cccc(C(=O)Nc5ccn(C)n5)c4)n3)CC2)c1 [Example 32C, 3-(cyclopropylmethoxy)-5-methoxy-N-((1-(2-(3-(1-methyl-1H-pyrazol-3-ylcarbamoyl)phenyl)pyrimidin-4-yl)piperidin-4-yl)methyl)benzamide]
10 to 100 nM | COC(=O)c1cnc(-c2cccc(-n3cccn3)c2)nc1N1CCC(CNC(=O)c2cc(OC)cc(OC)c2)CC1 [Example 21B, methyl 2-(3-(1H-pyrazol-1-yl)phenyl)-4-(4-((3,5-dimethoxybenzamido)methyl)piperidin-1-yl)pyrimidine-5-carboxylate]
10 to 100 nM | COc1cc(OCC2CC2)cc(C(=O)NCC2CCN(c3ncnc(-c4cccc(C(=O)Nc5nccs5)c4)n3)CC2)c1 [Example 32I, 3-(cyclopropylmethoxy)-5-methoxy-N-((1-(4-(3-(thiazol-2-ylcarbamoyl)phenyl)-1,3,5-triazin-2-yl)piperidin-4-yl)methyl)benzamide]
10 to 100 nM | COc1cc(OCC(F)(F)F)cc(C(=O)NCC2CCN(c3ncnc(-c4cccc(C#N)c4)n3)CC2)c1 [Example 30C, N-((1-(4-(3-cyanophenyl)-1,3,5-triazin-2-yl)piperidin-4-yl)methyl)-3-methoxy-5-(2,2,2-trifluoroethoxy)benzamide]
10 to 100 nM | C#CCOc1cc(OC)cc(C(=O)NCC2CCN(c3nc(-c4cccc(-c5cc[nH]n5)c4)ncc3F)CC2)c1 [Example 23C, N-((1-(2-(3-(1H-pyrazol-3-yl)phenyl)-5-fluoropyrimidin-4-yl)piperidin-4-yl)methyl)-3-methoxy-5-(prop-2-ynoxy)benzamide]
10 to 100 nM | COCCOc1cc(OC)cc(C(=O)NCC2CCN(c3ccnc(-c4cccc(-n5cccn5)c4)n3)CC2)c1 [Example 15D, N-((1-(2-(3-(1H-pyrazol-1-yl)phenyl)pyrimidin-4-yl)piperidin-4-yl)methyl)-3-methoxy-5-(2-methoxyethoxy)benzamide]

From US8993757B2, “N-piperidin-4-yl derivatives” (Merck Sharp & Dohme B.V., priority 2011, dated 2015)
